The text below walks through data of ChEMBL document CHEMBL4431323, “Synthesis and carbonic anhydrase inhibitory effects of new N-glycosylsulfonamides incorporating the phenol moiety” (Bioorg Med Chem Lett, 2016).

The term Ki denotes the equilibrium dissociation constant of an inhibitor or competing ligand from its target.

The target of one assay is Carbonic anhydrase 9 (Homo sapiens, UniProt Q16790). In words: Inhibition of human carbonic anhydrase 9 incubated for 15 mins prior to testing by stopped flow CO2 hydration assay.
The target in a further assay is Carbonic anhydrase 12 (Homo sapiens, UniProt O43570). In words: Inhibition of human carbonic anhydrase 12 incubated for 15 mins prior to testing by stopped flow CO2 hydration assay.
Chain of Carbonic anhydrase 12 (O43570 whole entry): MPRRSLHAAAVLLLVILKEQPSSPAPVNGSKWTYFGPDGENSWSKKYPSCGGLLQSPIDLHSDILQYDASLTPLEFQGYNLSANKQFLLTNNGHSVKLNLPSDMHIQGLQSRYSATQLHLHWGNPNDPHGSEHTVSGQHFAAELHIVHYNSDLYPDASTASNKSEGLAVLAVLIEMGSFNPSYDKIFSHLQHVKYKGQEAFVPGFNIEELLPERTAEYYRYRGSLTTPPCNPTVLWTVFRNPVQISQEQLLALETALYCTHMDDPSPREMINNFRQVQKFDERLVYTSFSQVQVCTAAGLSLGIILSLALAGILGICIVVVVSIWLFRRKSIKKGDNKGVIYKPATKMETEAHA

A value given as a limit tells only on which side of the number the result lay.

For `O=S(=O)(N[C@H]1C=C[C@@H](O)[C@@H](CO)O1)c1ccc(O)cc1`, the Ki on Carbonic anhydrase 9 and on Carbonic anhydrase 12 was above 50 µM in each case.
Regarding `CC(=O)OC[C@H]1OC(NS(=O)(=O)c2ccc(O)cc2)C(OC(C)=O)=C[C@@H]1OC(C)=O` (stereo partly drawn), the Ki on Carbonic anhydrase 9 and at Carbonic anhydrase 12 was above 50 µM in each case.
Consider `CC(=O)OC[C@H]1O[C@H](NS(=O)(=O)c2ccc(O)cc2)C=C[C@H]1OC(C)=O`, for which the Ki on Carbonic anhydrase 9 and at Carbonic anhydrase 12 was above 50 µM throughout.
As for `NS(=O)(=O)c1ccc(O)cc1`, the Ki on Carbonic anhydrase 9 stood at 0.235 µM; at Carbonic anhydrase 12, 0.176 µM.
On the same counts, the results for `O=C1C[C@H](O)[C@@H](CO)OC1NS(=O)(=O)c1ccc(O)cc1` (stereo partly drawn) are above 50 µM and above 50 µM.
For `O=S(=O)(NC1C=C[C@H](O)[C@@H](CO)O1)c1ccc(O)cc1` (stereo partly drawn), the inhibition constant (Ki) at Carbonic anhydrase 9 and at Carbonic anhydrase 12 was above 50 µM in each case.
As for `O=S(=O)(N[C@@H]1C=C[C@@H](O)[C@@H](CO)O1)c1ccc(O)cc1`, the Ki on Carbonic anhydrase 9 and at Carbonic anhydrase 12 was above 50 µM in each case.
Consider `CC(=O)OC[C@H]1OC(NS(=O)(=O)c2ccc(O)cc2)C=C[C@@H]1OC(C)=O` (relative stereo), for which the Ki at Carbonic anhydrase 9 and on Carbonic anhydrase 12 was above 50 µM throughout.
For the compound `CC(=O)OC[C@H]1O[C@@H](NS(=O)(=O)c2ccc(O)cc2)C=C[C@H]1OC(C)=O`, the Ki on Carbonic anhydrase 9 and on Carbonic anhydrase 12 was above 50 µM each time.
